Measurements taken from patent publication US5872115A, “2-ureido-benzamide derivatives” (Grelan Pharmaceutical Co. Ltd., priority 1995, dated 1999).

Tests used:
[1] = Acute toxicity, male ICR strain mouse; format: in vivo; settings: 1000 mg/kg orally, seven days after administration
Procedure: (1) Acute toxicity: Nine compounds (Example Nos. 1, 2, 5, 6, 12, 19, 28, 31 and 45) were tested by using male ICR strain mouse weighing 23.0±0.7 g.

[2] = tested on: ACAT of macrophage; assay: In-vivo test using mouse peritoneal macrophages (ACAT inhibition); settings: male mice, compound in diet for 16 days
Procedure: (3) In-vivo Test Using Mouse Peritoneal Macrophages
Male mice were fed a standard powder diet containing the test compounds for 16 days. After 14 and 15 days on this diet, aggregated-LDL (containing 4 mg cholesterol) prepared from LDL receptor deficient KHC rabbit and [^14 C] oleic acid together with the said aggregated-LDL (containing 0.5 mg cholesterol) were injected into the peritoneal cavity of these animals, respectively. After 16 days on this treatment, peritoneal macrophages were harvested by peritoneal lavage with PBS solution and CHCl3 -MeOH (2:1) were added to the cell suspension in order to extract lipids. Formed [^14 C] cholesterol oleate was separated by thin-layer chromatography and the radioactivity was counted.
ACAT inhibitory activities of the test compounds were shown as inhibiting percentage referred to control group.

[3] = molecular target: T1, ACAT of THP-1 cells (Homo sapiens, UniProt P35610); assay: In-vitro test using THP-1 intact cell (ACAT inhibition); format: cell-based; settings: read-out: IC50 THP1 (intact cell)
T1 construct: differentiated into macrophage-like cells by phorbol ester; endogenous in cells; host or cells: THP-1 (human leukemia), intact cells differentiated by phorbol ester
T1 sequence (P35610 1-550): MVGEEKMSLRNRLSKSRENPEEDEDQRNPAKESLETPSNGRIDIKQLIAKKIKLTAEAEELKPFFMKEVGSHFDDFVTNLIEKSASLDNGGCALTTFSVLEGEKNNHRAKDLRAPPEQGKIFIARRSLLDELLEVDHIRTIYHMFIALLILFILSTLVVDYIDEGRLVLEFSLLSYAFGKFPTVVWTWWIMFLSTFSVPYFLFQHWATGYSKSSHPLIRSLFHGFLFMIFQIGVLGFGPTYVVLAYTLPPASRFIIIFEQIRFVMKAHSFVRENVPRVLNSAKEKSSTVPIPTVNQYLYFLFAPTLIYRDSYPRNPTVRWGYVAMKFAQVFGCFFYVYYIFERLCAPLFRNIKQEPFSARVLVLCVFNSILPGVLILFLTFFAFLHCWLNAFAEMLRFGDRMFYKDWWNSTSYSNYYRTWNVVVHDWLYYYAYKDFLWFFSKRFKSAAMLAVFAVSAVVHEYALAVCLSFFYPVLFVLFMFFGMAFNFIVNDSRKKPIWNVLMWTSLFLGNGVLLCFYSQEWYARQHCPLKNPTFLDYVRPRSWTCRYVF
Procedure: (2) In-vitro Test Using THP-1 Intact Cell
About 2 million cells of human leukemia cell line, THP-1 were seeded in a well with 2 ml of medium and differentiated into macrophage-like cells by phorbol ester. Then, the cells were washed with phosphate-buffered saline (PBS) solution and the medium was replaced by fresh medium supplemented with 10% of lipoprotein-deficient serum. After the addition of each test compound dissolved in dimethyl sulfoxide and 100 μg protein-containing human low density lipoprotein (LDL), the reaction was initiated by the addition of 10 nmoles of labeled [^14 C]oleic acid and 10 nmoles of oleic acid complexed with BSA in PBS solution. After 22 hours, the reaction was stopped by removal the medium and CHCl3 -MeOH (2:1) were added to the cell suspension in order to extract lipids.
Intracellular [^14 C] cholesterol-oleate formed was separated by thin-layer chromatography and the radioactivity was counted with lipid scintillation counter.
(§1) ACAT inhibitory activities of the test compounds were shown as IC50 values.

[4] = tested on: ACAT of HepG2 microsome; assay: In-vitro test using Hep G2 microsome (ACAT inhibition); format: biochemical, human
Procedure: (1) In-vitro Test Using Hep G2 Microsome
ACAT enzyme fraction was prepared from microsome of human derived hepatoma Hep G2 cell according to Sandra's method [Journal of Lipid Research, 27, 875 (1986)].
Microsome was suspended at a concentration of 200 μg protein/20 μl in 0.1M phosphate buffer solution (pH7.4) and the suspension was preincubated at 37° C. for 5 minutes after addition of 10 μl of each test compound dissolved in 0.1M phosphate buffer solution containing bovine serum albmin (BSA). Then, the reaction was initiated by the addition of 5 nmoles of labeled [^14 C]-oleoyl-CoA dissolved in 20 μl of the said phosphate buffer solution containing BSA and the reaction was stopped by the addition of 20 μl of 2N HCl after 10 minutes. [^14 C] cholesterol-oleate formed was separated by thin-layer chromatography and the radioactivity was counted with liquid scintillation counter.
as §1

[5] = tested on: ACAT of macrophages; assay: In vivo test using peritoneal macrophages in C57BL/6J mice (ACAT inhibition); set-up: species or system mouse; settings: Experiment 1; female C57BL/6J mice, 30 mg/kg/day per os for 4 days
Procedure: (6) In Vivo Test Using Peritoneal Macrophages in C57BL/6J Mice
A standard pellet diet fed female C57BL/6J mice were administered at 10 a.m. per os 30 mg/kg/day of oral suspension (1% CMC-Na 0.2% Tween 80) for 4 days. Thioglycollate and [^14 C] cholesterol were injected […], mice were sacrificed for the collection of peritoneal macrophages. Lipid was extracted, formed [^14 C] cholesterol-ester was separated by thin-layer chromatography and radioactivity was counted as described above in method (3).
In vivo ACAT inhibitory activities on macrophages were expressed as percentage of inhibition compared to control group.

SMILES	macroscopic changes on any organs at autopsy [1]	Inhibition rate (macrophages) [2]	IC50 [3]	IC50 [4]	Inhibition rate (macrophages) [5]
CCCCCCCNC(=O)Nc1ccccc1C(=O)NCC1CCN(C(c2ccccc2)c2ccccc2)CC1 [Example 5, 2-(N'-n-Heptylureido)-N-[(1-diphenylmethylpiperidin-4-yl)methyl]benzamide]	no macroscopic changes were observed	64%	70 nM	1600 nM	
CCCCCCCNC(=O)Nc1ccc(N(C)C)cc1C(=O)NCC1CCN(C(c2ccccc2)c2ccccc2)CC1 [Example 1, 2-(N'-n-Heptylureido)-5-dimethylamino-N-[(1-diphenylmethylpiperidin-4-yl)methyl]-benzamide]	no macroscopic changes were observed	65%	70 nM	600 nM	81.0%
